Data published in patent US20110263647A1 (AMGEN INC., priority 2009, published 2011).
Where a name gives a salt, the structure may show the parent alone. Read-outs that look alike come from different tables or passages of the source.

Key:
[1] = target: T1, CYP2D6 (Homo sapiens, UniProt P10635); assay: CYP2D6 inhibition assay (bufuralol, pooled human liver microsomes); format: in vitro ADME; conditions: pH 7.4, probe bufuralol (5 μM), test compound 3 μM, human liver microsomes 0.25 mg/mL
T1 construct: tissue XenoTech LLC Lot 0610351; host or cells: pooled human liver microsomes
T1 sequence (P10635 whole entry): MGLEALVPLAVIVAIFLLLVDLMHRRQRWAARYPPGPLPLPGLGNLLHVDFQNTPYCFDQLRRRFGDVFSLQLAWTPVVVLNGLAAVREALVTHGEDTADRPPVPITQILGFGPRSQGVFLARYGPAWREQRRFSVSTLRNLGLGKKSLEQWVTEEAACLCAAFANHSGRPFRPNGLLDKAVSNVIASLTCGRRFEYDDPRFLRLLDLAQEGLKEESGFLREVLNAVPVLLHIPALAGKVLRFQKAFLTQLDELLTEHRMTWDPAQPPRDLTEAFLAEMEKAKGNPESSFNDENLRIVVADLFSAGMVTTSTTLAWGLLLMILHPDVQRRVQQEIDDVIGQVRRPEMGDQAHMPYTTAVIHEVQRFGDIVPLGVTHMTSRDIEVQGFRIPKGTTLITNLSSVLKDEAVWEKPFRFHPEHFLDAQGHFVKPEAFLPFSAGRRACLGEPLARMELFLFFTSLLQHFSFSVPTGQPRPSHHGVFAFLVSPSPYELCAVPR
Experimental: Midazolam was obtained from BD Gentest (Waltham, Mass.); 1′ hydroxy midazolam and 1-hydroxy bufuralol maleate were obtained from Ultrafine Chemicals (Manchester, UK); bufuralol HCl, ketoconazole, quinidine, potassium phosphate, and NADPH were obtained from Sigma (St. Louis, Mo.). Test compounds were prepared at 10 mM concentration in DMSO (Mallinckrodt Inc., St. Louis, Mo.). NADPH was prepared at 10 mM concentration in a pH 7.4 buffer (8.3 mg/mL 66.7 mM potassium phosphate). Midazolam was prepared at 1 mM concentration in deionized water (Amgen, Thousand Oaks, Calif.), and bufuralol was prepared at 2 mM concentration in deionized water. A stock solution of ketoconazole was prepared at 37 mM concentration in DMSO, and quinidine was prepared at 500 uM concentration in DMSO. Formic acid in acetonitrile (0.05%, ACN) was used as a quench solution (Sigma-Aldrich, St. Louis, Mo.). All solvents used for LC/MS were of chromatographic grade. Pooled human liver microsomes (Lot 0610351) were purchased from XenoTech LLC, (Lenexa, Kans.).
Pooled human liver microsomes (0.25 mg/mL) were incubated at 37° C. in a phosphate buffer (66.7 mM potassium phosphate at pH 7.4) with the selective CYP2D6 substrate bufuralol at a concentration of 5 μM in the presence and absence of test compound (3 μM). The reaction was started with the addition of NADPH (1 mM final concentration). The reaction was stopped after 10 minutes by addition of formic acid in acetonitrile. 1-Hydroxybufuralol metabolite formation was measured by an HPLC MS detection method (mobile phases for HPLC were: 0.1% AcOH in 5% MeOH, and 0.1% AcOH in 95% MeOH; the HPLC column was an Onyx Monolithic C18 CHO-7645 HPLC column from Phenomenex; Shimadzu LC-10ADVP equipped Biomek FX Liquid handling system and CTC Analytics PAL well auto-sampler; Mass spectrometer: Applied Biosystems API 3000 using Analyst 1.4.1 software). Inhibition was determined by the ratio of the amount of 1-hydroxy bufuralol metabolite formed metabolite in the presence of test compound to the amount of metabolite in the absence of test compound.

[2] = In vivo pharmacokinetics, IV and oral gavage; design: species or system male Sprague-Dawley rats; conditions: rat; for FPO: Table 5; for Fpo (%): Table 6; for clearance / AUC(0-t) / Cmax / Vd: male, Sprague-Dawley, plasma; for Vd: read-out: Vss
How it was run: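 Male Sprague-Dawley rats (n=3 per route) dosed 2 mg/kg IV in DMSO (fed) or 5 mg/kg by oral gavage in 1% Tween 80/2% HPMC, pH 2.0 (fasted). Serial plasma samples to 16 h quantified by LC-MS/MS. CL, Vss, AUC, t1/2 and %F derived by noncompartmental analysis.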

[3] = IV 2 mg/kg, read-out: IV AUClast
[4] = PO 5 mg/kg, read-out: Oral AUClast
[5] = PO 5 mg/kg, read-out: Oral Cmax

| Structure (SMILES) | inhibition at 10 min, 3 μM [1] [%] | FPO ([2]; PO 5 mg/kg, IV 2 mg/kg) [%] | Fpo (%) ([2]; PO 5 mg/kg, IV 2 mg/kg) | clearance ([2]; IV 2 mg/kg) [mL/min/kg] | AUC(0-t) [2, 3] [ng·h/mL] | Cmax ([2]; IV 2 mg/kg, read-out: IV Cmax) [ng/mL] | Vd ([2]; IV 2 mg/kg) [L/kg] | AUC(0-t) [2, 4] [ng·h/mL] | Cmax [2, 5] [ng/mL] |
| --- | --- | --- | --- | --- | --- | --- | --- | --- | --- |
| N[C@H](CNc1ncc(-c2ccc3cnc(F)cc3c2)s1)Cc1ccc(C(F)(F)F)nc1 [Example 2, (2S)—N-(5-(3-Fluoro-6-isoquinolinyl)-1,3-thiazol-2-yl)-3-(6-(trifluoromethyl)-3-pyridinyl)-1,2-propanediamine] | 53 | 40 | 57 | 12.1 | 2370 | 531 | 5.19 | 2380 | 302 |
| N[C@H](CNc1ncc(-c2ccc3cnc(F)cc3c2)s1)Cc1ccc(C(F)(F)F)cc1 [Example 4, N—((S)-2-Amino-3-(4-(trifluoromethyl)phenyl)propyl)-5-(3-fluoroisoquinolin-6-yl)thiazol-2-amine trifluoroacetate] | 44 | 4 | 65 | 21.6 | 1530 | 959 | 2.59 | 165 | 25 |
| CC(F)(F)c1ccc(C[C@H](N)CNc2ncc(-c3ccc4cnc(F)cc4c3)s2)cn1 [Example 7, N—((S)-2-Amino-3-(6-(1,1-difluoroethyl)pyridin-3-yl)propyl)-5-(3-fluoroisoquinolin-6-yl)thiazol-2-amine] | 23 | 42 | 47 | 22.2 | 1440 | 432 | 6.22 | 1500 | 216 |
| C[C@@H](c1ccc(C(F)(F)F)cc1)[C@H](N)CNc1ncc(-c2ccc3cnc(F)cc3c2)s1 [Example 10, N-((2S,3S)-2-Amino-3-(4-(trifluoromethyl)phenyl)butyl)-5-(3-fluoroisoquinolin-6-yl)thiazol-2-amine] | 19 | 61 | 52 | 12.5 | 2040 | 426 | 7.17 | 3100 | 316 |
| COCc1nc(NC[C@@H](N)Cc2ccc(C(F)(F)F)nc2)sc1-c1ccc2cnc(F)cc2c1 [Example 18, N—((S)-2-Amino-3-(6-(trifluoromethyl)pyridin-3-yl)propyl)-5-(3-fluoroisoquinolin-6-yl)-4-(methoxymethyl)thiazol-2-amine] | 75 | 40 | 48 | 17.6 | 1640 | 422 | 8.08 | 1640 | 233 |
| N[C@H](CNc1ncc(-c2ccc3cnc(F)cc3c2)s1)CN1CCC(C(F)(F)F)CC1 [Example 25, N—((R)-2-Amino-3-(4-(trifluoromethyl)piperidin-1-yl)propyl)-5-(3-fluoroisoquinolin-6-yl)thiazol-2-amine] | 51 | 55 | 34 | 29.9 | 1100 | 396 | 9.88 | 1500 | 58 |
| N[C@H](CNc1ncc(-c2ccc3cnc(F)cc3c2)s1)[C@@H](CO)c1ccc(C(F)(F)F)cc1 [Example 33, (2S,3S)-3-Amino-4-(5-(3-fluoroisoquinolin-6-yl)thiazol-2-ylamino)-2-(4-(trifluoromethyl)phenyl)butan-1-ol] | 49 | 28 | 28 | 9.02 | 3130 | 803 | 3.41 | 2150 | 268 |
| N[C@H](CCc1ncc(-c2ccc3cnc(F)cc3c2)s1)[C@@H](O)c1ccc(C(F)(F)F)cc1 [Example 36, (1S,2R)-2-Amino-4-(5-(3-fluoroisoquinolin-6-yl)thiazol-2-yl)-1-(4-(trifluoromethyl)phenyl)butan-1-ol trifluoroacetate] | 27 | 64 | 66 | 14.6 | 1600 | 210 | 14.4 | 2560 | 206 |
| CC(F)(F)c1ccc([C@H](O)[C@H](N)CNc2ncc(-c3ccc4cnc(F)cc4c3)s2)cc1 [Example 38, (1S,2R)-2-Amino-1-(4-(1,1-difluoroethyl)phenyl)-3-((5-(3-fluoro-6-isoquinolinyl)-1,3-thiazol-2-yl)amino)-1-propanol trifluoroacetate] | 44 | 36 | 45 | 8.53 | 3010 | 473 | 9.48 | 2730 | 100 |
| N[C@H](CNc1ncc(-c2ccc3cnc(F)cc3c2)s1)Cc1ccc(Cl)c(F)c1 [Example 44, (2S)-3-(4-Chloro-3-fluorophenyl)-N-1-(5-(3-fluoro-6-isoquinoliny)-1,3-thiazol-2-yl)-1-2-propanediamine] | 42 | 65 | 67 | 8.2 | 2030 | 292 | 11.4 | 3290 | 261 |
| CC(F)(F)c1ccc(C[C@H](N)CCc2ncc(-c3ccc4cnc(F)cc4c3)s2)cn1 [Example 50] | 71 | 103 | 85 | 45.1 | 709 | 165 | 15.3 | 1820 | 228 |
